The results in this text go back to PMC8066402 (The AAPS journal, 2020).

The target in the experiment is T1, Monocarboxylate transporter 1 (MCT1) (Mus musculus, UniProt P53986).
T1 sequence (P53986 1-493): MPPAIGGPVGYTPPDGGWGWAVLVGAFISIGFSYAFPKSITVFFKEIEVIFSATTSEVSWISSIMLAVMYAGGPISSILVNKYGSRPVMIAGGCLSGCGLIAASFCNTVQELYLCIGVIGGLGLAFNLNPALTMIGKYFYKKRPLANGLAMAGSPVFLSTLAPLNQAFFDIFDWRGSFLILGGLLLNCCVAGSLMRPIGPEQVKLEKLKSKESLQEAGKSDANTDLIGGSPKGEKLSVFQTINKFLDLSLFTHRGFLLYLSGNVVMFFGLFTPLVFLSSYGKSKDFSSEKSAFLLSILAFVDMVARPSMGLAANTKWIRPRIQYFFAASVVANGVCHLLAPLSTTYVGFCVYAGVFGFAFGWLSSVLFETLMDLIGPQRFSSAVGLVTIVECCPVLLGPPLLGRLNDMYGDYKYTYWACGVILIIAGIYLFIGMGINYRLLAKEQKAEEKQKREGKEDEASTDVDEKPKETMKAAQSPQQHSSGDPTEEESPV
T1 sequence (P18572 22-389 partner): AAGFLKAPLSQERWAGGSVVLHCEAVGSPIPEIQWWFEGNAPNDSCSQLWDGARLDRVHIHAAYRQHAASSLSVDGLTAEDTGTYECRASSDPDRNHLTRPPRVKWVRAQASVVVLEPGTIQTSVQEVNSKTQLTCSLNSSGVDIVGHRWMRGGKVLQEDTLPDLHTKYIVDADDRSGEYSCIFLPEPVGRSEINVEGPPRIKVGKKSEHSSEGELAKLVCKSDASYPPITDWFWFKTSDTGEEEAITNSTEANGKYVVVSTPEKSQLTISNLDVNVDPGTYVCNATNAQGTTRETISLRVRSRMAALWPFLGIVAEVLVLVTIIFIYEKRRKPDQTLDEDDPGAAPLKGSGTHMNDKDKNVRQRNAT
Nature of the experiment: inhibition of radiolabeled L-lactate uptake in 4T1 cells. Type of experiment: cell-based.

`Cc1[nH]nc(C(F)(F)F)c1Cc1sc2c(c1C(=O)N1C[C@](C)(O)CO1)c(=O)n(C)c(=O)n2C(C)C` [AZD3965]: the concentration for half-maximal inhibition (IC50) (as a rule, the concentration needed to halve the response being measured) was 1.7e-05 ± 3.6e-06 mM. `N#C/C(=C\c1ccc(O)cc1)C(=O)O` [CHC, α-cyano-4-hydroxycinnamic acid] returned an IC50 of 7.57 ± 15.2 mM.
